{"source": "paper PMC4700268", "about": "(Frontiers in Pharmacology, 2016)", "key": {"hOCT2": {"target": "T1, hOCT2 (Homo sapiens, UniProt O15244)", "T1 construct": "host or cells: MDCK II cells, transient transfection", "T1 sequence (O15244 1-555)": "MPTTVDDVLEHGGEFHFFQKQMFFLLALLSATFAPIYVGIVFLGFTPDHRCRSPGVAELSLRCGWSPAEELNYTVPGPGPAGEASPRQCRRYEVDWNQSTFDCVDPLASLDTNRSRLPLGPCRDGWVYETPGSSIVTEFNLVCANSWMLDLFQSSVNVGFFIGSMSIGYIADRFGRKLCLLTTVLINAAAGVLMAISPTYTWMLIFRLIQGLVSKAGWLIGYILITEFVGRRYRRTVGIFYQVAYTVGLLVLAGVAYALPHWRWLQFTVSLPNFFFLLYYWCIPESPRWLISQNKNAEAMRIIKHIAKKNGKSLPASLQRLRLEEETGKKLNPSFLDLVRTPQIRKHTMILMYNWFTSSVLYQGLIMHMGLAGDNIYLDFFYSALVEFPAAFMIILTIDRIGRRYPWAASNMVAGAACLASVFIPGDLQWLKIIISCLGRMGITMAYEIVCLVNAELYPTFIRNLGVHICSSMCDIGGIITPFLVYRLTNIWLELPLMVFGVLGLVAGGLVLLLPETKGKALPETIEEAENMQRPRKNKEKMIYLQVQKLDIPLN", "assay": "Inhibition of [3H]MPP+ uptake in hOCT2 transfected MDCK II cells", "format": "in vitro ADME", "conditions": "1 μM [3H]MPP+, ETV 0–2000 μM, 2 min", "description": "(§1) Inhibitory transport assays were carried out in 24-well plates as described previously ([Mandikova et al., 2013]). Transport assays in HeLa cells transiently transfected with the hOAT1 expression construct were performed 48 h after transfection. Transport assays in MDCK II cells transiently transfected with hOCT2, hCNT2 or hCNT3 were performed 24 h after transfection. The cultivation medium was removed and the cells were washed with transport solution and preincubated for 10 min at 37°C. The standard radiolabeled substrate or tested radioactive antiviral substance dissolved in transport solution was added to the cells and incubated for 2 min. […] After the designated time period, the incubation was stopped by washing the cells twice with ice-cold solution containing 137 mM NaCl and 10 mM HEPES, pH 7.4. The cells were disintegrated with 0.1 mL of Triton X 0.5% in 100 mM NaOH for 1 h. […] IC50 values were calculated using non-linear regression analysis using GraphPad Prism software (version 6)."}, "[1]": {"test_system": "HeLa cells transiently transfected with hOAT1", "protocol": "The Hela cells were plated in a 96-well plate and transfected with hOAT1 as described above. […] The controls were prepared simultaneously. After 24 h of incubation, the reagent from the kit CellTiter 96 AQueous One Solution Cell Proliferation Assay (CellTiter 96, PROMEGA, USA) was added. After 1.5 h of incubation at 37°C the absorbance was recorded at 490 nm."}, "hOAT1 [2]": {"target": "T2, hOAT1 (Homo sapiens, UniProt Q4U2R8)", "T2 sequence (Q4U2R8 1-563)": "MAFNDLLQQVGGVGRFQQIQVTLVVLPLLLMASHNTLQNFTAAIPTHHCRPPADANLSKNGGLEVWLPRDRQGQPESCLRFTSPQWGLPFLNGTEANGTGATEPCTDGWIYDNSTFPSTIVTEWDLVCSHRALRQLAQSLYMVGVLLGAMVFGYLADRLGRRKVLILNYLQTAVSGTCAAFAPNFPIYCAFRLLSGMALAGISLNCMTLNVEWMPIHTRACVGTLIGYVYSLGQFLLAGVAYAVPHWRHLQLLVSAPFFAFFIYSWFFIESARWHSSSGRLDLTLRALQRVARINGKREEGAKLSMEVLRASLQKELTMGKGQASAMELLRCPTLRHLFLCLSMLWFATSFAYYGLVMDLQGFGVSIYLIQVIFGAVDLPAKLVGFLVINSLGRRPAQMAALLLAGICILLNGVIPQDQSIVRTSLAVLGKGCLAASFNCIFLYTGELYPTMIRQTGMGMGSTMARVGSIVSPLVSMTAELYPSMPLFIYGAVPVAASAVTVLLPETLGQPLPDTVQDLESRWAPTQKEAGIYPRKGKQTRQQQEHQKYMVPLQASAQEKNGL", "assay": "[3H]ETV uptake in hOAT1 transfected cells", "format": "in vitro ADME", "set-up": "host or cells: HeLa cells, transient transfection", "conditions": "5 min, 37°C"}, "hOAT1 [3]": {"target": "T2, hOAT1", "assay": "Inhibition of [3H]PAH uptake in hOAT1 transfected HeLa cells", "format": "in vitro ADME", "set-up": "host or cells: HeLa cells, transient transfection", "conditions": "1 μM [3H]PAH, HeLa cells transiently transfected with hOAT1, 2 min, 37°C; read-out: IC50, inhibition of hOAT1 mediated transport", "description": "as §1"}, "hCNT3": {"target": "T3, hCNT3 (Homo sapiens, UniProt Q9HAS3)", "T3 sequence (Q9HAS3 1-691)": "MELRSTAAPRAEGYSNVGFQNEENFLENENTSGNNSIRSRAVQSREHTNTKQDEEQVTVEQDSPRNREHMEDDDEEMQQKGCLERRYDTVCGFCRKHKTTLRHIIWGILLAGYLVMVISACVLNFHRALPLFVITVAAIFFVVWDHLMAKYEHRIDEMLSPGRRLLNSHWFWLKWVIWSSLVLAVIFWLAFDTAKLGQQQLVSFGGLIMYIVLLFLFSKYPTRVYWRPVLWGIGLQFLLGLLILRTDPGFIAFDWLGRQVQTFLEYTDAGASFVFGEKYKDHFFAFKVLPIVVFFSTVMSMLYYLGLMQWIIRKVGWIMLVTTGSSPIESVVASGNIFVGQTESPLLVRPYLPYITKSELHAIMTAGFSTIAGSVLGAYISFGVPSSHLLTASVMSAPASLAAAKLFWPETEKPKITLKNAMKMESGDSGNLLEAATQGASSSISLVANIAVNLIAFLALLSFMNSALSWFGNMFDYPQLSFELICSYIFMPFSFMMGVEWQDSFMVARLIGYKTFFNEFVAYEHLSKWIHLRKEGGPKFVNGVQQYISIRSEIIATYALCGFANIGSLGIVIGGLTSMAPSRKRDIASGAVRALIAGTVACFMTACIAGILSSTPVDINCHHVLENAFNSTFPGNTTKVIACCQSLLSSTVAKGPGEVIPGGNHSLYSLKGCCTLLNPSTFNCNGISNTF", "assay": "[3H]ETV uptake in hCNT3 transfected cells", "conditions": "5 min, 37°C"}}}
{"smiles": "C=C1[C@H](CO)[C@@H](O)C[C@@H]1n1cnc2c(=O)[nH]c(N)nc21", "note": "[ETV, Entecavir]", "values": [{"measurement": "Inhibitory interaction with hOCT2", "setting": "hOCT2", "value": "No interaction"}, {"measurement": "Effect of hOAT1 expression on cytotoxicity (cell viability)", "setting": "[1]", "value": "no significant effect on cell viability"}, {"measurement": "Vmax of [3H]ETV uptake by hOAT1", "setting": "hOAT1 [2]", "value": 0.91, "unit": "nmol/mg protein/5 min"}, {"measurement": "IC50", "setting": "hOAT1 [3]", "value": 175, "unit": "µM"}, {"measurement": "Vmax of [3H]ETV uptake by hCNT3", "setting": "hCNT3", "value": 45.84, "unit": "nmol/mg protein/5 min"}]}
